Data reported in EP0233686A2, “Bis phenyl ethanol amines and bis phenyoxypropanolamines having a beta-agonist activity” (BEECHAM GROUP PLC, priority 1986, dated 1987).
Structures can show the parent of a compound that is named as a salt.

Test system: Female CFLP mice
Experiment: Hypoglycaemic activity: oral compound, then subcutaneous glucose load in fasted mice; area under the blood glucose curve over 2 hours compared with water controls
Format: in vivo
Settings: Mus musculus, mice fasted for 24 hours, glucose 1g/kg s.c. 30 minutes after dosing, 2 hour AUC vs water controls, read-out: % reduction in area under blood glucose curve; for inhibition in vivo at 3 µmol/kg: dose 3 µmol/Kg p.o.
Method: Female CFLP mice, weighing approximately 25g, were fasted for 24 hours prior to the study. The compounds under study were administered orally as an aqueous solution to each of 6 mice. 30 minutes later a blood sample (20ul) was obtained from the tail for the analysis of blood glucose. Immediately after taking this blood sample, glucose (lg/kg body weight) was administered subcutaneously to each mouse. 6 mice were -given water as a control. Blood samples were then obtained from each mouse at 30 minute intervals for 120 minutes. Compounds that produced a significant (p>0.05) reduction of blood glucose, compared with control mice given water, at any time interval were considered active. The area under the blood glucose curve over the 2 hour period after the administration of the glucose was calculated for each compound and compared with the value for control animals.

`C[C@H](Cc1ccc(OCCCCCCCCCOc2ccc(C[C@@H](C)NC[C@H](O)c3cccc(Cl)c3)cc2)cc1)NC[C@H](O)c1cccc(Cl)c1` [Example 13, [R,R,R,R,]-α,α'[1,9-Nonanediylbis[oxy-4,1-phenylene (1-methyl-2,1-ethanediyl)iminomethylene]]bis[3-chlorobenzenemethanol], dihydrochloride] gave an inhibition in vivo at 3 µmol/kg of 34%.

In the case of `C[C@H](Cc1ccc(C(O)(CO)c2ccc(C[C@@H](C)NC[C@H](O)c3cccc(Cl)c3)cc2)cc1)NC[C@H](O)c1cccc(Cl)c1` [Example 7, [R,R,R,R]-1,1-di[4-[2-[[2-(3-chlorophenyl)-2-hydroxyethyl]amino]propyl]phenyl]-1,2-ethanediol, dihydrochloride], the inhibition in vivo at 2.5 µmol/kg (dose 2.5 µmol/Kg p.o.) is reported as 17%.

For `C[C@H](Cc1ccc(OCCCCCCOc2ccc(C[C@@H](C)NC[C@H](O)c3cccc(Cl)c3)cc2)cc1)NC[C@H](O)c1cccc(Cl)c1` [Example 3, [R,R,R,R]-α,α'[1,6-Hexanediylbis[oxy-4,1-phenylene(1-methyl-2,1-ethanediyl)iminomethylene]]bis[3-chlorobenzenemethanol], dihydrochloride], the inhibition in vivo at 1 µmol/kg (dose 1.0 µmol/Kg p.o.) was 55%.

Molecule `C[C@H](Cc1ccc(CNCCCCNCc2ccc(C[C@@H](C)NC[C@H](O)c3cccc(Cl)c3)cc2)cc1)NC[C@H](O)c1cccc(Cl)c1` [Example 16, [R,R,R,R]-α,α'-[1,4-Butanediylbis[iminomethylene-4,1-phenylene(1-methyl-2,1-ethanediyl)iminomethylene]]bis [3-chlorobenzenemethanol, tetrahydrochloride] has an inhibition in vivo at 3 µmol/kg of 8%.

Work on `C[C@H](Cc1ccc(OCC(=O)NCCNC(=O)COc2ccc(C[C@@H](C)NC[C@H](O)c3cccc(Cl)c3)cc2)cc1)NC[C@H](O)c1cccc(Cl)c1` [Example 1, [R,R,R,R]-N,N'-(1,2-Ethanediyl)bis[2-[4-[2-[(2-(3-chlorophenyl)-2-hydroxyethyl)amino]propyl]phenoxy]acetamide]] yielded an inhibition in vivo at 12.5 µmol/kg (dose 12.5 µmol/Kg p.o.) of 43%.

Molecule `C[C@H](Cc1ccc(OCCCCCOc2ccc(C[C@@H](C)NC[C@H](O)c3cccc(Cl)c3)cc2)cc1)NC[C@H](O)c1cccc(Cl)c1` [Example 20, [R,R,R,R]-α,α'-[1,5-Pentanediylbis[oxy-4,1-phenylene (1-methyl-2,1-ethanediyl)iminomethylene]] bis[3-chlorobenzenemethanol], dihydrochloride] has an inhibition in vivo at 0.1 µmol/kg (dose 0.1 µmol/Kg p.o.) of 51%.

`C[C@H](Cc1ccc(CCCCCCc2ccc(C[C@@H](C)NC[C@H](O)c3cccc(Cl)c3)cc2)cc1)NC[C@H](O)c1cccc(Cl)c1` [Example 19, [R,R,R,R]-α,α'-[1,6-Hexanediylbis[4,1-phenylene (1-methyl-2,1-ethanediyl)iminomethylene]] bis[3-chlorobenzenemethanol], dihydrochloride] gave an inhibition in vivo at 10 µmol/kg (dose 10 µmol/Kg p.o.) of 11%.

For `C[C@H](Cc1ccc(S(=O)(=O)c2ccc(C[C@@H](C)NC[C@H](O)c3cccc(Cl)c3)cc2)cc1)NC[C@H](O)c1cccc(Cl)c1` [Example 6, [R,R,R,R]-α,α'-[Sulphonylbis[4,1-phenylene(1-methyl-2,1-ethanediyl)iminomethylene]]bis|3-chlorobenzenemethanol] dihydrochloride], the inhibition in vivo at 3 µmol/kg was 30%.
